Where a chain is given by its changes, count along the chain named.
How the values were obtained:
[1] = biological target: T1, METTL21D in p97-ND1:ASPL-CΔ:METTL21D (Homo sapiens, UniProt Q9H867); assay: X-ray crystal structure, […] Å; format: binding; conditions: METTL21D active site; crystallized with SAM, product of p97 Lys315 trimethylation; contacts Asp96, Trp126
T1 construct: gene VCPKMT; 1:1:1 heterotrimer ~110 kDa; METTL21D His tag cleaved by TEV; p97-ND1 fragment lacking D2 domain, Lys315 trimethylated; ASPL-CΔ residues 313-500; E. coli; with Transitional endoplasmic reticulum ATPase; Tether containing UBX domain for GLUT4
T1 sequence (Q9H867 2-229 limits assumed, stated change not applied): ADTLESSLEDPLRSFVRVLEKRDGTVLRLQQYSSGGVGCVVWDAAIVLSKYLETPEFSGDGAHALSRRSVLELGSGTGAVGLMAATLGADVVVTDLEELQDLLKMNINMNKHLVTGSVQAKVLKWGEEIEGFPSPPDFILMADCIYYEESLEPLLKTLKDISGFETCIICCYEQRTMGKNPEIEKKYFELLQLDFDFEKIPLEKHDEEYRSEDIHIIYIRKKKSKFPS
T1 sequence (P55072 2-480 partner limits assumed): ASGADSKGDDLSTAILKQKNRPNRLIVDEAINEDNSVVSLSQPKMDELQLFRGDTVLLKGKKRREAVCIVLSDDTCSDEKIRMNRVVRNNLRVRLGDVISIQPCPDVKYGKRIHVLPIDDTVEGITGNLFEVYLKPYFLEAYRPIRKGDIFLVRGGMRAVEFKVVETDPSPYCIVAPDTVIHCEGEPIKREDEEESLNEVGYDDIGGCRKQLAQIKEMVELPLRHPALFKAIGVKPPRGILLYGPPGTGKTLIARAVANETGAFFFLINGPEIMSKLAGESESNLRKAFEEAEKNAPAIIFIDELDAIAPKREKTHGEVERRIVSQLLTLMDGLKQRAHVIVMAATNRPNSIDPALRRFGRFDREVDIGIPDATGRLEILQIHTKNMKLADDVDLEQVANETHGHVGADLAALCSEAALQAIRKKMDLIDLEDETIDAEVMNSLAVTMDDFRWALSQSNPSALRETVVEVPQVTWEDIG
T1 sequence (Q9BZE9 313-500 partner): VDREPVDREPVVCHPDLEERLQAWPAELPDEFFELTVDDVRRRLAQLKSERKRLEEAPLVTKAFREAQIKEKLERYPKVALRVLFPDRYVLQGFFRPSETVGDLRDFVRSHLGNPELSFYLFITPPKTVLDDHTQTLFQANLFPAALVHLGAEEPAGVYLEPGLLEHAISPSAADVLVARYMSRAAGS

[2] = biological target: T2, AtMETTL21D (Arabidopsis thaliana, UniProt F4HUD6, C19S/L26V, form not given); assay: methylation assay, anti-Kme3 western blot; format: biochemical; conditions: co-substrate AtCDC48; weak gain of trimethylation; 20 mM HEPES pH 8.0, 200 mM NaCl, RT
T2 construct: gene At1g08125; E. coli; His tag cleaved by TEV
T2 sequence (F4HUD6 15-239 C19S/L26V): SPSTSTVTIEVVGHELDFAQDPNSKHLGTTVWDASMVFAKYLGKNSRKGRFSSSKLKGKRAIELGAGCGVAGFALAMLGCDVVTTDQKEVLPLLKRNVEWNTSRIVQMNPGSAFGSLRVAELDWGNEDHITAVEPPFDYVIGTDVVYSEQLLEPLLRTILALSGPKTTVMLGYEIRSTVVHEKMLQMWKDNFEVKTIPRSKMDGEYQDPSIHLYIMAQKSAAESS

[3] = biological target: T3, AtMETTL21D (Arabidopsis thaliana, UniProt F4HUD6); assay: methylation assay, anti-monomethyl-lysine western blot; format: biochemical; conditions: automethylation and monomethylation of AtCDC48 in the presence of PUX1; pH 8.0, RT
T3 construct: gene At1g08125; E. coli; His tag cleaved by TEV
T3 sequence (F4HUD6 15-239): T2 sequence (F4HUD6 15-239 C19S/L26V) with S5C, V12L

SMILES	X-ray crystal structure, 3.0 Å [1]	methylation assay, anti-Kme3 western blot [2]	methylation assay, anti-monomethyl-lysine western blot [3]
Nc1ncnc2c1ncn2[C@@H]1O[C@H](CSCC[C@H](N)C(=O)O)[C@@H](O)[C@H]1O [S-adenosyl-L-homocysteine]	the active site of METTL21D contains a S-adenosyl-L-homocysteine (SAH) molecule		
C[S+](CC[C@H](N)C(=O)O)C[C@H]1O[C@@H](n2cnc3c(N)ncnc32)[C@H](O)[C@@H]1O (stereo partly drawn) [S-adenosyl-methionine]		substitution of leucine with valine in plant AtMETTL21D resulted in gain of trimethylation activity	AtMETTL21D monomethylated itself, as well as AtCDC48 in the presence of PUX1

Reference: paper PMC9942839, “Structural remodeling of AAA+ ATPase p97 by adaptor protein ASPL facilitates posttranslational methylation by METTL21D” (Proceedings of the National Academy of Sciences of the …, 2023)
